According to BindingDB's records for doi:10.1073/pnas.121170598 (Merck Research Laboratories, 2001):
Bridge positions count the residues as written; N and C are the ends. Peptide text beside a SMILES is read from it.

Assays:
[1] = target: Melanin-concentrating hormone receptor 2 (Homo sapiens, UniProt Q969V1)
[2] = target: Melanin-concentrating hormone receptor 1 (Homo sapiens, UniProt Q99705)
Sequence of Melanin-concentrating hormone receptor 1 (Q99705 as listed by the source): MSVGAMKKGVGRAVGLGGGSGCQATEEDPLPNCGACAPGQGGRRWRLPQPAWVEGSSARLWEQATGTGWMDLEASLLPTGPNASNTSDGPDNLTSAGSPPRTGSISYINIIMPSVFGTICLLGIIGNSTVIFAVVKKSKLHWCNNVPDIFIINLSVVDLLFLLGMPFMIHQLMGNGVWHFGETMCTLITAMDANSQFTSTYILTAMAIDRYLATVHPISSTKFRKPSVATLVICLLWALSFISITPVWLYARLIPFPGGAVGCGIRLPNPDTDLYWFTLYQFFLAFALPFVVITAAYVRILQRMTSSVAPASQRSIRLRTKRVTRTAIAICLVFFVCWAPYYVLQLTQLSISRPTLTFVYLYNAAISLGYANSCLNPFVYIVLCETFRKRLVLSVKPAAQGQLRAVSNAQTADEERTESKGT

Sequence of Melanin-concentrating hormone receptor 2 (Q969V1 whole entry): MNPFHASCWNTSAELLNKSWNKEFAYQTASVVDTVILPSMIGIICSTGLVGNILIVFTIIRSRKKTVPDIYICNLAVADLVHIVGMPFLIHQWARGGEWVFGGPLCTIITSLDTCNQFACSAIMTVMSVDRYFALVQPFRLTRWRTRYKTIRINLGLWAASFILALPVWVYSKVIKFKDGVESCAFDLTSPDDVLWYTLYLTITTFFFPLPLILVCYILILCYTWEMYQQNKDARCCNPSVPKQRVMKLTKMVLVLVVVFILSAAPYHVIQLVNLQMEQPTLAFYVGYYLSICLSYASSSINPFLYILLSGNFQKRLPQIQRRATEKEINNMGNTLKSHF

Row | Ki [2] | SMILES | Ki [1]
1 | 0.2 nM | CSCC[C@@H]1NC(=O)[C@@H](NC(=O)[C@H](CCCNC(=N)N)NC(=O)[C@H](CCSC)NC(=O)[C@@H](NC(=O)[C@@H](N)CC(=O)O)[C@@H](C)O)CSSC[C@@H](C(=O)N[C@@H](Cc2c[nH]c3ccccc23)C(=O)N[C@@H](CCC(=O)O)C(=O)N[C@H](C(=O)O)C(C)C)NC(=O)[C@@H]2CCCN2C(=O)[C@H](CCCNC(=N)N)NC(=O)[C@H](Cc2ccc(O)cc2)NC(=O)[C@H](C(C)C)NC(=O)[C@H](CCCNC(=N)N)NC(=O)CNC(=O)[C@H](C(C)C)NC1=O [Salmon MCH] (H-DTMRCMVGRVYRPCWEV-OH; disulfide 5-14) | 437 nM
2 | – | CSCC[C@@H]1NC(=O)[C@@H](NC(=O)[C@H](CCCNC(=N)N)NC(=O)[C@H](CC(C)C)NC(=O)[C@H](CCSC)NC(=O)[C@H](CC(=O)O)NC(=O)[C@H](Cc2ccccc2)NC(=O)[C@@H](N)CC(=O)O)CSSC[C@@H](C(=O)N[C@@H](Cc2c[nH]c3ccccc23)C(=O)N[C@@H](CCC(N)=O)C(=O)N[C@H](C(=O)O)C(C)C)NC(=O)[C@@H]2CCCN2C(=O)[C@H](CCCNC(=N)N)NC(=O)[C@H](Cc2ccc(O)cc2)NC(=O)[C@H](C(C)C)NC(=O)[C@H](CCCNC(=N)N)NC(=O)CNC(=O)[C@H](CC(C)C)NC1=O [hMCH] | 1.5 nM
